Experimental data reported in US12157730B2, “Heteroaryl derivative, method for producing same, and pharmaceutical composition comprising same as effective component” (VORONOI INC., priority 2019, dated 2024).

molecular target: T1, Ba/F3 cell EGFR Exon20 ins NPH (Homo sapiens, UniProt P00533, INS773NPH); experiment: Ba/F3 cell proliferation suppression, EGFR Exon20 ins NPH; type: cell-based; conditions: GI50 class; Ba/F3 cell line with NPH inserted at Exon20 of EGFR; 72 hours
T1 construct: expressed in transfected cells; host or cells: Ba/F3
Outline: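 Cells (3000–5000/well) plated 24 h before compound, 12-point 3-fold dilutions at 0.3 nM to 50 um final; Ba/F3 lines grown with 5 ng/ml IL-3. Viability by CellTiter-Glo luminescence after 72 h, growth ratio vs control, GI50 from curves; triplicate.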

Question: How did the “Ba/F3 (NPH) Activity” value turn out when `C=CC(=O)Nc1cc(Nc2cc(N3OCC[C@@H]3Cc3cccc(F)c3Cl)ncn2)c(OC)cc1N1CCN(C2CC2)CC1` [compound 1006, N-(5-((6-((S)-3-(2-chloro-3-fluorobenzyl)isoxazolidine-2-yl)pyrimidine-4-yl)amino)-2-(4-cyclopropylpiperazine-1-yl)-4-methoxyphenyl) acrylamide] was run?
Answer: Its value is “A (GI50 < 50 nM)”.

Question: Which “Ba/F3 (NPH) Activity” value does the source give for `C=CC(=O)Nc1cc(Nc2cc(N3OCC[C@@H]3c3cc(F)ccc3F)ncn2)c(OC)cc1N1CCC(N2CC[C@H](N(C)C)C2)CC1` [compound 816, N-(5-((6-((R)-3-(2,5-difluorophenyl)isoxazolidine-2-yl)pyrimidine-4-yl)amino)-2-(4-((S)-3-(dimethylamino)pyrolidine-1-yl)piperidine-1-yl)-4-methoxyphenyl) acrylamide] here?
Answer: Its value is “A (GI50 < 50 nM)”.

Question: Which “Ba/F3 (NPH) Activity” value does the source give for `C=CC(=O)Nc1cc(Nc2cc(N3OCC[C@@H]3Cc3ccccc3)ncn2)c(OC)cc1N1CCN(C2CCCC2)CC1` [compound 972, N-(5-((6-((S)-3-benzylisoxazolidine-2-yl)pyrimidine-4-yl)amino)-2-(4-cyclopentylpiperazine-1-yl)-4-methoxyphenyl) acrylamide] here?
Answer: Its value is “A (GI50 < 50 nM)”.

Question: Which “Ba/F3 (NPH) Activity” value does the source give for `C=CC(=O)Nc1cc(Nc2cc(N3OCC[C@H]3c3c(F)cccc3F)ncn2)c(OC)cc1N1CCC(N2CCN(C)[C@@H](C)C2)CC1` [compound 313, N-(5-((6-((S)-3-(2,6-difluorophenyl)isoxazolidine-2-yl)pyrimidine-4-yl)amino)-2-(4-((S)-3,4-dimethylpiperazine-1-yl)piperidine-1-yl)-4-methoxyphenyl) acrylamide] here?
Answer: Its value is “C (500 nM ≤ GI50 < 5000 nM)”.

Question: With `C=CC(=O)Nc1cc(Nc2cc(N3OCC[C@@H]3c3c(F)ccc(F)c3F)ncn2)c(OC)cc1N1CCC(N2C[C@@H](C)O[C@@H](C)C2)CC1` [compound 644, N-(2-(4-((2S,6R)-2,6-dimethylmorpholino)piperidine-1-yl)-4-methoxy-5-((6-((R)-3-(2,3,6-trifluorophenyl)isoxazolidine-2-yl)pyrimidine-4-yl)amino)phenyl)acrylamide] as the molecule, how does the “Ba/F3 (NPH) Activity” value read?
Answer: The value was “A (GI50 < 50 nM)”.

Question: For `C=CC(=O)Nc1cc(Nc2cc(N3OCC[C@@H]3c3cccc(C)c3F)ncn2)c(OC)cc1N(C)CCN(C)C` [compound 846, N-(2-((2-(dimethylamino)ethyl) (methyl)amino)-5-((6-((R)-3-(2-fluoro-3-methylphenyl)isoxazolidine-2-yl)pyrimidine-4-yl)amino)-4-methoxyphenyl) acrylamide], which “Ba/F3 (NPH) Activity” value is on record?
Answer: Its value is “A (GI50 < 50 nM)”.

Question: For `C=CC(=O)Nc1cc(Nc2cc(N3OCC[C@@H]3c3cccc(OC)c3)ncn2)c(OC)cc1N1CC[C@H](N2CCOCC2)C1` [compound 778, N-(4-methoxy-5-((6-((R)-3-(3-methoxyphenyl)isoxazolidine-2-yl)pyrimidine-4-yl)amino)-2-((S)-3-morpholinopyrolidine-1-yl)phenyl)acrylamide], which “Ba/F3 (NPH) Activity” value is on record?
Answer: Its value is “B (50 nM ≤ GI50 < 500 nM)”.

Question: `C=CC(=O)Nc1cc(Nc2cc(N3OCC[C@@H]3c3ccc(Cl)cc3F)ncn2)c(OC)cc1N1CC[C@@H](N(C)C)C1` [compound 456, N-(5-((6-((R)-3-(4-chloro-2-fluorophenyl)isoxazolidine-2-yl)pyrimidine-4-yl)amino)-2-((R)-3-(dimethylamino)pyrolidine-1-yl)-4-methoxyphenyl) acrylamide] was tested. Which “Ba/F3 (NPH) Activity” value did it give?
Answer: The value was “A (GI50 < 50 nM)”.

Question: With `C=CC(=O)Nc1cc(Nc2cc(N3OCC[C@@H]3c3cc(F)cc(F)c3)ncn2)c(OC)cc1N1CCC(N2CC3(COC3)C2)CC1` [Example 103, N-(2-(4-(2-oxa-6-azaspiro[3.3]heptane-6-yl)piperidine-1-yl)-5-((6-((R)-3-(3,5-difluorophenyl)isoxazolidine-2-yl)pyrimidine-4-yl)amino)-4-methoxyphenyl) acrylamide] as the molecule, how does the “Ba/F3 (NPH) Activity” value read?
Answer: The value was “A (GI50 < 50 nM)”.

Question: With `C=CC(=O)Nc1cc(Nc2cc(N3OCC[C@@H]3Cc3cccc(Cl)c3Cl)ncn2)c(OC)cc1N1CCC(N2CCN(C3CC3)[C@H](C)C2)CC1` [compound 980, N-(2-(4-((R)-4-cyclopropyl-3-methylpiperazine-1-yl)piperidine-1-yl)-5-((6-((S)-3-(2,3-dichlorobenzyl)isoxazolidine-2-yl)pyrimidine-4-yl)amino)-4-methoxyphenyl) acrylamide] as the molecule, how does the “Ba/F3 (NPH) Activity” value read?
Answer: Its value is “A (GI50 < 50 nM)”.

Question: With `C=CC(=O)Nc1cc(Nc2cc(N3OCC[C@@H]3c3cccc(C)c3F)ncn2)c(OC)cc1N1CCC(N2CCN(CC)CC2)CC1` [compound 318, N-(2-(4-(4-ethylpiperazine-1-yl)piperidine-1-yl)-5-((6-((R)-3-(2-fluoro-3-methylphenyl)isoxazolidine-2-yl)pyrimidine-4-yl)amino)-4-methoxyphenyl) acrylamide] as the molecule, how does the “Ba/F3 (NPH) Activity” value read?
Answer: Its value is “A (GI50 < 50 nM)”.

Question: With `C=CC(=O)Nc1cc(Nc2cc(N3OCC[C@@H]3Cc3cccc(F)c3)ncn2)c(OC)cc1N(C)CCN(C)C` [compound 992, N-(2-((2-(dimethylamino)ethyl) (methyl)amino)-5-((6-((S)-3-(3-fluorobenzyl)isoxazolidine-2-yl)pyrimidine-4-yl)amino)-4-methoxyphenyl) acrylamide] as the molecule, how does the “Ba/F3 (NPH) Activity” value read?
Answer: Its value is “A (GI50 < 50 nM)”.

Question: `C=CC(=O)Nc1cc(Nc2cc(N3OCC[C@@H]3Cc3cccc(Cl)c3Cl)ncn2)c(OC)cc1N1CCC(N2C[C@@H](C)O[C@@H](C)C2)CC1` [compound 1010, N-(5-((6-((S)-3-(2,3-dichlorobenzyl)isoxazolidine-2-yl)pyrimidine-4-yl)amino)-2-(4-((2S,6R)-2,6-dimethylmorpholino)piperidine-1-yl)-4-methoxyphenyl) acrylamide] was tested. Which “Ba/F3 (NPH) Activity” value did it give?
Answer: The value was “A (GI50 < 50 nM)”.

Question: Which “Ba/F3 (NPH) Activity” value does the source give for `C=CC(=O)Nc1cc(Nc2cc(N3OCC[C@@H]3c3ccc(Cl)cc3)ncn2)c(OC)cc1N1CCC(N2CC[C@H](N(C)C)C2)CC1` [compound 784, N-(5-((6-((R)-3-(4-chlorophenyl)isoxazolidine-2-yl)pyrimidine-4-yl)amino)-2-(4-((S)-3-(dimethylamino)pyrolidine-1-yl)piperidine-1-yl)-4-methoxyphenyl) acrylamide] here?
Answer: Its value is “A (GI50 < 50 nM)”.

Question: `C=CC(=O)Nc1cc(Nc2cc(N3OCC[C@@H]3c3cccc(Cl)c3F)ncn2)c(OC)cc1N1CCC(N2CCN(C3CC3)[C@@H](C)C2)CC1` [Example 179, N-(5-((6-((R)-3-(3-chloro-2-fluorophenyl)isoxazolidine-2-yl)pyrimidine-4-yl)amino)-2-(4-((S)-4-cyclopropyl-3-methylpiperazine-1-yl)piperidine-1-yl)-4-methoxyphenyl) acrylamide] was tested. Which “Ba/F3 (NPH) Activity” value did it give?
Answer: Its value is “A (GI50 < 50 nM)”.

Question: With `C=CC(=O)Nc1cc(Nc2cc(N3OCC[C@@H]3c3cccc(OC)c3)ncn2)c(OC)cc1N1CC[C@@H](N(C)C)C1` [compound 776, N-(2-((R)-3-(dimethylamino)pyrolidine-1-yl)-4-methoxy-5-((6-((R)-3-(3-methoxyphenyl)isoxazolidine-2-yl)pyrimidine-4-yl)amino)phenyl)acrylamide] as the molecule, how does the “Ba/F3 (NPH) Activity” value read?
Answer: The value was “A (GI50 < 50 nM)”.

Question: Which “Ba/F3 (NPH) Activity” value does the source give for `C=CC(=O)Nc1cc(Nc2cc(N3OCC[C@@H]3c3ccc(Cl)cc3)ncn2)c(OC)cc1N1CCC(N2CCN(C(C)=O)CC2)CC1` [compound 806, N-(2-(4-(4-acetylpiperazine-1-yl)piperidine-1-yl)-5-((6-((R)-3-(4-chlorophenyl)isoxazolidine-2-yl)pyrimidine-4-yl)amino)-4-methoxyphenyl) acrylamide] here?
Answer: Its value is “A (GI50 < 50 nM)”.

Question: How did the “Ba/F3 (NPH) Activity” value turn out when `C=CC(=O)Nc1cc(Nc2cc(N3OCC[C@@H]3c3ccc(Cl)c(F)c3)ncn2)c(OC)cc1N1CCC(N2C[C@@H]3C[C@H]2CN3CC)CC1` [compound 858, N-(5-((6-((R)-3-(4-chloro-3-fluorophenyl)isoxazolidine-2-yl)pyrimidine-4-yl)amino)-2-(4-((1S,4S)-5-ethyl-2,5-diazabicyclo [2.2.1]heptane-2-yl)piperidine-1-yl)-4-methoxyphenyl) acrylamide] was run?
Answer: The value was “A (GI50 < 50 nM)”.

Question: With `C=CC(=O)Nc1cc(Nc2cc(N3OCC[C@@H]3c3ccc(Cl)cc3)ncn2)c(OC)cc1N1CC[C@@H](N(C)C)C1` [compound 695, N-(5-((6-((R)-3-(4-chlorophenyl)isoxazolidine-2-yl)pyrimidine-4-yl)amino)-2-((R)-3-(dimethylamino)pyrolidine-1-yl)-4-methoxyphenyl) acrylamide] as the molecule, how does the “Ba/F3 (NPH) Activity” value read?
Answer: The value was “B (50 nM ≤ GI50 < 500 nM)”.

Question: How did the “Ba/F3 (NPH) Activity” value turn out when `C=CC(=O)Nc1cc(Nc2cc(N3OCC[C@@H]3c3cccc(Cl)c3)ncn2)c(OC)cc1N1CCC(N2CCN(CC)CC2)CC1` [compound 412, N-(5-((6-((R)-3-(3-chlorophenyl)isoxazolidine-2-yl)pyrimidine-4-yl)amino)-2-(4-(4-ethylpiperazine-1-yl)piperidine-1-yl)-4-methoxyphenyl) acrylamide] was run?
Answer: Its value is “A (GI50 < 50 nM)”.

Question: How did the “Ba/F3 (NPH) Activity” value turn out when `C=CC(=O)Nc1cc(Nc2cc(N3OCC[C@@H]3c3cc(F)cc(F)c3)ncn2)c(OC)cc1N1CCC(N2CCNCC2)CC1` [compound 754, N-(5-((6-((R)-3-(3,5-difluorophenyl)isoxazolidine-2-yl)pyrimidine-4-yl)amino)-4-methoxy-2-(4-(piperazine-1-yl)piperidine-1-yl)phenyl) acrylamide] was run?
Answer: Its value is “B (50 nM ≤ GI50 < 500 nM)”.

Question: Which “Ba/F3 (NPH) Activity” value does the source give for `C=CC(=O)Nc1cc(Nc2cc(N3OCC[C@@H]3c3cccc(Cl)c3Cl)ncn2)c(OC)cc1N1CCC(N2CCN(CC)CC2)CC1` [compound 569, N-(5-((6-((R)-3-(2,3-dichlorophenyl)isoxazolidine-2-yl)pyrimidine-4-yl)amino)-2-(4-(4-ethylpiperazine-1-yl)piperidine-1-yl)-4-methoxyphenyl) acrylamide] here?
Answer: The value was “A (GI50 < 50 nM)”.

Question: For `C=CC(=O)Nc1cc(Nc2cc(N3OCC[C@@H]3c3cccc(F)c3)ncn2)c(OC)cc1N1CCC(N2C[C@H]3C[C@@H]2CO3)CC1` [Example 243, N-(2-(4-((1R,4R)-2-oxa-5-azabicyclo[2.2.1]heptane-5-yl)piperidine-1-yl)-5-((6-((R)-3-(3-fluorophenyl)isoxazolidine-2-yl)pyrimidine-4-yl)amino)-4-methoxyphenyl) acrylamide], which “Ba/F3 (NPH) Activity” value is on record?
Answer: Its value is “A (GI50 < 50 nM)”.
